Assay [1] addresses T1, Melanocyte-stimulating hormone receptor (Homo sapiens, UniProt Q01726). Briefly: Displacement of [125I]NDP-alpha-MSH from human MC1BR expressed in CHO cells. The format is cell-based. A general note: Loss of bound radioactivity is the signal in a displacement assay; it reports binding, not function.
Target sequence in this assay (Q01726 whole entry): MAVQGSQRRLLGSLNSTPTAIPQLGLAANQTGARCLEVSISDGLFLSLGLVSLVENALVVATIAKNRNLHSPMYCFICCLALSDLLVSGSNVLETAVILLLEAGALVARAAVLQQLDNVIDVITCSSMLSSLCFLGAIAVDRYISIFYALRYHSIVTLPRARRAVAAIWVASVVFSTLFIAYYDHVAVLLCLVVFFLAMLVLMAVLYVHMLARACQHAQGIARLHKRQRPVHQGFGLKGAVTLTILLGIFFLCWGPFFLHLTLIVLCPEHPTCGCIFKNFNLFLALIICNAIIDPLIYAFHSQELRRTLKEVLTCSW
Assay [2] has as its target T2, Melanocortin receptor 4 (Homo sapiens, UniProt P32245). Briefly: Displacement of [125I]NDP-alpha-MSH from human MC4R expressed in CHO cells. The format is cell-based.
For assay [3], the target named is T3, Melanocortin receptor 3 (Homo sapiens, UniProt P41968). Briefly: Displacement of [125I]NDP-alpha-MSH from human MC3R expressed in CHO cells. The format is cell-based.
Assay [4] has as its target T4, Melanocortin receptor 5 (Homo sapiens, UniProt P33032). Briefly: Displacement of [125I]NDP-alpha-MSH from human MC5R expressed in CHO cells. The format is cell-based.
Assay [5] concerns the target T1, Melanocyte-stimulating hormone receptor. Description: Activity against human MC1BR by cAMP accumulation. The format is functional. A general note: cAMP levels reflect the balance of adenylyl cyclase and phosphodiesterase activity.
Target sequence in this assay (Q01726 whole entry): as above
Assay [6] has the same target. Briefly: Activity against human MC1R by percentage of cAMP accumulation at 10 uM. The format is functional.
Target sequence in this assay (Q01726 whole entry, looked up): as the sequence (Q01726 whole entry) above
Assay [7] has as its target T2, Melanocortin receptor 4. Briefly: Activity against human MC4R by cAMP accumulation. The format is functional.
Assay [8] has as its target T2, Melanocortin receptor 4. Description: Activity against human MC4R by percentage of cAMP accumulation at 10 uM. The format is functional.
The target of assay [9] is T3, Melanocortin receptor 3. Briefly: Activity against human MC3R by cAMP accumulation. The format is functional.
The target of assay [10] is T3, Melanocortin receptor 3. Briefly: Activity against human MC3R by percentage of cAMP accumulation at 10 uM. The format is functional.
In assay [11] the target is T4, Melanocortin receptor 5. Briefly: Activity against human MC5R by cAMP accumulation. The format is functional.
Assay [12] addresses T4, Melanocortin receptor 5. Briefly: Activity against human MC5R by percentage of cAMP accumulation at 10 uM. The format is functional.

T2 sequence (P32245 whole entry): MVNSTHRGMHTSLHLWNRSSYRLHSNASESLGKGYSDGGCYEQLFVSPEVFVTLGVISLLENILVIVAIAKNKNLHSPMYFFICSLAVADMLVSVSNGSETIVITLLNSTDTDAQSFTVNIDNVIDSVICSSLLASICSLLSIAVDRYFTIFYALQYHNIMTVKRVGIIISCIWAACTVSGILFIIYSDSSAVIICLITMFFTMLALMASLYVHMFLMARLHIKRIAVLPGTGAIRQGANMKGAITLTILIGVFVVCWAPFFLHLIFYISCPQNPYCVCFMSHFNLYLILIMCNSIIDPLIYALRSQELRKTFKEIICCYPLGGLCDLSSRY
T4 sequence (P33032 whole entry): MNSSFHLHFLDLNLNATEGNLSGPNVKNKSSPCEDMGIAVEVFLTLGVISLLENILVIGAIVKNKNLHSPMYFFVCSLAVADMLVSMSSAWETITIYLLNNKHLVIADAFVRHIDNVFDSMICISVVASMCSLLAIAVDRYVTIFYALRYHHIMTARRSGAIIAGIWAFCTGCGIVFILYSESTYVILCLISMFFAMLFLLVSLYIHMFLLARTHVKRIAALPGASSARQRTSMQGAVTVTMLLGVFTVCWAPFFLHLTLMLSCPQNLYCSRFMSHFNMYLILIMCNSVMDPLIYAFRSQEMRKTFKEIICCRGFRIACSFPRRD
T3 sequence (P41968 whole entry): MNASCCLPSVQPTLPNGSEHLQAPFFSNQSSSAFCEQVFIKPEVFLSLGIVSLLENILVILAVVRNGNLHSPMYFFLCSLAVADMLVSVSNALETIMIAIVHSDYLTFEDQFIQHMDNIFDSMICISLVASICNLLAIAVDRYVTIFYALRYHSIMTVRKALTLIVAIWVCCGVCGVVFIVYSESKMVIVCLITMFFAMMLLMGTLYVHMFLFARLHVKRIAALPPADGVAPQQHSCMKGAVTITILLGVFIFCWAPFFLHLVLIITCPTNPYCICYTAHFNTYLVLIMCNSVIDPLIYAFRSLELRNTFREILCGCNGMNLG

One may read the IC50 as the midpoint of a concentration-inhibition curve. As usually defined, the EC50 is the concentration that produces a half-maximal response. A higher EC50 goes with weaker potency. In the case of `C[C@H]1COC(=O)N1CC1(C2CCCCC2)CCN(C(=O)[C@@H](Cc2ccc(Cl)cc2)NC(=O)[C@H]2Cc3ccccc3CN2)CC1`, the IC50 is 2400 nM in [1], 4.5 nM on Melanocortin receptor 4 [2], 840 nM at Melanocortin receptor 3 [3] and 220 nM at Melanocortin receptor 5 [4]. In addition, the EC50 turned out to be 2100 nM in [5], 8.6 nM at Melanocortin receptor 4 [7], 640 nM at Melanocortin receptor 3 [9] and 400 nM at Melanocortin receptor 5 [11]. Besides, the %max came to 72% in assay [6], 90% on Melanocortin receptor 4 [8], 19% at Melanocortin receptor 3 [10] and 53% at Melanocortin receptor 5 [12].

For the compound `O=C(N[C@H](Cc1ccc(Cl)cc1)C(=O)N1CCC(Cn2cncn2)(C2CCCCC2)CC1)[C@H]1Cc2ccccc2CN1`, the %max in assay [6] is 95%; on Melanocortin receptor 3 [10], 32%; on Melanocortin receptor 5 [12], 61%.

Turning to `CC1(C)COC(=O)N1CC1(C2CCCCC2)CCN(C(=O)[C@@H](Cc2ccc(Cl)cc2)NC(=O)[C@H]2Cc3ccccc3CN2)CC1`, the IC50 stood at 1100 nM in [1], 0.8 nM on Melanocortin receptor 4 [2], 230 nM on Melanocortin receptor 3 [3] and 80 nM at Melanocortin receptor 5 [4]. Moreover, the EC50 in assay [5] is 550 nM; on Melanocortin receptor 4 [7], 2.4 nM; at Melanocortin receptor 5 [11], 340 nM. Moreover, the %max in [6] was found to be 35%; on Melanocortin receptor 4 [8], 82%; on Melanocortin receptor 3 [10], 6%; at Melanocortin receptor 5 [12], 38%.

Take `CC1(C)CCN(CC2(C3CCCCC3)CCN(C(=O)[C@@H](Cc3ccc(Cl)cc3)NC(=O)[C@H]3Cc4ccccc4CN3)CC2)S1(=O)=O`: the IC50 in assay [1] was determined as 1200 nM; at Melanocortin receptor 4 [2] it was 0.62 nM; on Melanocortin receptor 3 [3], 760 nM; on Melanocortin receptor 5 [4], 190 nM. Moreover, the EC50 in assay [5] stood at 460 nM; on Melanocortin receptor 4 [7], 5.8 nM; at Melanocortin receptor 3 [9] it was 450 nM; on Melanocortin receptor 5 [11] it was 850 nM. Besides, the %max came out at 27% in [6], 74% at Melanocortin receptor 4 [8], 18% on Melanocortin receptor 3 [10] and 39% at Melanocortin receptor 5 [12].

For `CCOC(=O)N(CC1(C2CCCCC2)CCN(C(=O)[C@@H](Cc2ccc(Cl)cc2)NC(=O)[C@H]2Cc3ccccc3CN2)CC1)C(C)C`, the IC50 in assay [1] was determined as 1100 nM; on Melanocortin receptor 4 [2], 8.1 nM; at Melanocortin receptor 3 [3], 630 nM; on Melanocortin receptor 5 [4] it was 630 nM. For the same compound, the EC50 in [5] turned out to be 970 nM; on Melanocortin receptor 4 [7], 14 nM; at Melanocortin receptor 3 [9], 550 nM; at Melanocortin receptor 5 [11] it was 3600 nM. For the same compound, the %max in assay [6] turned out to be 26%; on Melanocortin receptor 4 [8], 95%; at Melanocortin receptor 3 [10], 37%; at Melanocortin receptor 5 [12], 51%.

Take `O=C(N[C@H](Cc1ccc(Cl)cc1)C(=O)N1CCC(CN2C(=O)OCC23CC3)(C2CCCCC2)CC1)[C@H]1Cc2ccccc2CN1`: the IC50 turned out to be 2400 nM in [1], 4.6 nM on Melanocortin receptor 4 [2], 490 nM on Melanocortin receptor 3 [3] and 170 nM on Melanocortin receptor 5 [4]. Besides, the EC50 was 2600 nM in assay [5], 6.1 nM on Melanocortin receptor 4 [7], 990 nM on Melanocortin receptor 3 [9] and 620 nM on Melanocortin receptor 5 [11]. For the same compound, the %max in assay [6] amounted to 48%; at Melanocortin receptor 4 [8], 68%; at Melanocortin receptor 3 [10], 15%; on Melanocortin receptor 5 [12] it was 36%.

Regarding `CN1CCN(CC2(C3CCCCC3)CCN(C(=O)[C@@H](Cc3ccc(Cl)cc3)NC(=O)[C@H]3Cc4ccccc4CN3)CC2)C1=O`, the IC50 was 1800 nM in assay [1], 4.3 nM on Melanocortin receptor 4 [2], 660 nM at Melanocortin receptor 3 [3] and 160 nM at Melanocortin receptor 5 [4]. Besides, the EC50 stood at 950 nM in assay [5], 16 nM at Melanocortin receptor 4 [7], 1200 nM at Melanocortin receptor 3 [9] and 460 nM at Melanocortin receptor 5 [11]. Moreover, the %max in assay [6] stood at 43%; on Melanocortin receptor 4 [8], 88%; at Melanocortin receptor 3 [10], 24%; at Melanocortin receptor 5 [12], 63%.

Regarding `C[C@@H]1COC(=O)N1CC1(C2CCCCC2)CCN(C(=O)[C@@H](Cc2ccc(Cl)cc2)NC(=O)[C@H]2Cc3ccccc3CN2)CC1`, the IC50 in assay [1] is 1700 nM; on Melanocortin receptor 4 [2], 1.3 nM; at Melanocortin receptor 3 [3] it was 210 nM; on Melanocortin receptor 5 [4], 110 nM. Moreover, the EC50 in [5] is 1300 nM; at Melanocortin receptor 4 [7] it was 1.3 nM; on Melanocortin receptor 3 [9], 370 nM; on Melanocortin receptor 5 [11], 400 nM. Further, the %max in assay [6] came out at 40%; on Melanocortin receptor 4 [8], 68%; at Melanocortin receptor 3 [10], 15%; on Melanocortin receptor 5 [12], 51%.

`CC(C)N(CC1(C2CCCCC2)CCN(C(=O)[C@@H](Cc2ccc(Cl)cc2)NC(=O)[C@H]2Cc3ccccc3CN2)CC1)S(C)(=O)=O`: the IC50 in assay [1] came to 1300 nM; at Melanocortin receptor 4 [2], 2.1 nM; on Melanocortin receptor 3 [3], 380 nM; on Melanocortin receptor 5 [4], 200 nM. Besides, the EC50 in assay [5] came to 1500 nM; at Melanocortin receptor 4 [7], 5.6 nM; at Melanocortin receptor 3 [9] it was 590 nM; on Melanocortin receptor 5 [11], 800 nM. For the same compound, the %max turned out to be 39% in assay [6], 86% on Melanocortin receptor 4 [8], 23% at Melanocortin receptor 3 [10] and 48% on Melanocortin receptor 5 [12].

`O=C(N[C@H](Cc1ccc(Cl)cc1)C(=O)N1CCC(CN2C(=O)OCC23CCC3)(C2CCCCC2)CC1)[C@H]1Cc2ccccc2CN1`: the IC50 came to 2100 nM in [1], 7.9 nM at Melanocortin receptor 4 [2], 400 nM at Melanocortin receptor 3 [3] and 210 nM at Melanocortin receptor 5 [4]. In addition, the figures for the EC50 (in [5]; at Melanocortin receptor 4 [7]; on Melanocortin receptor 5 [11]) were 1700 nM, 15 nM and 1200 nM, respectively. Besides, the %max in assay [6] is 25%; at Melanocortin receptor 4 [8] it was 65%; at Melanocortin receptor 3 [10] it was 6%; at Melanocortin receptor 5 [12], 32%.

On to `O=C(N[C@H](Cc1ccc(Cl)cc1)C(=O)N1CCC(CN2CCOC2=O)(C2CCCCC2)CC1)[C@H]1Cc2ccccc2CN1`, for which the IC50 in [1] was determined as 2000 nM; on Melanocortin receptor 4 [2], 4 nM; at Melanocortin receptor 3 [3] it was 460 nM; at Melanocortin receptor 5 [4], 180 nM. Also, the EC50 in [5] came out at 1300 nM; at Melanocortin receptor 4 [7], 5.8 nM; on Melanocortin receptor 5 [11] it was 280 nM. For the same compound, the %max in assay [6] was 56%; at Melanocortin receptor 4 [8], 76%; on Melanocortin receptor 3 [10] it was 11%; at Melanocortin receptor 5 [12], 48%.

Regarding `O=C(N[C@H](Cc1ccc(Cl)cc1)C(=O)N1CCC(CN2CCNC2=O)(C2CCCCC2)CC1)[C@H]1Cc2ccccc2CN1`, the IC50 came to 1100 nM in assay [1], 4.8 nM at Melanocortin receptor 4 [2], 520 nM at Melanocortin receptor 3 [3] and 150 nM on Melanocortin receptor 5 [4]. Moreover, the EC50 in assay [5] stood at 980 nM; on Melanocortin receptor 4 [7] it was 16 nM; at Melanocortin receptor 3 [9], 880 nM; at Melanocortin receptor 5 [11] it was 480 nM. Also, the %max amounted to 39% in [6], 82% at Melanocortin receptor 4 [8], 23% on Melanocortin receptor 3 [10] and 48% on Melanocortin receptor 5 [12].

Turning to `O=C(N[C@H](Cc1ccc(Cl)cc1)C(=O)N1CCC(CN2CCCS2(=O)=O)(C2CCCCC2)CC1)[C@H]1Cc2ccccc2CN1`, the IC50 in assay [1] is 1300 nM; at Melanocortin receptor 4 [2], 0.91 nM; at Melanocortin receptor 3 [3], 310 nM; at Melanocortin receptor 5 [4] it was 170 nM. Besides, the EC50 in [5] was 680 nM; at Melanocortin receptor 4 [7] it was 5.3 nM; on Melanocortin receptor 3 [9], 540 nM; at Melanocortin receptor 5 [11], 660 nM. The %max was found to be 41% in [6], 67% on Melanocortin receptor 4 [8], 19% at Melanocortin receptor 3 [10] and 41% at Melanocortin receptor 5 [12].

The values are drawn from ChEMBL document CHEMBL1138149, “Optimization of a privileged structure leading to potent and selective human melanocortin subtype-4 receptor ligands” (Bioorg Med Chem Lett, 2006).
